Reference: US7700786B2, “Pyrazole derivative, intermediate therefor, processes for producing these, and herbicide containing these as active ingredient” (Sagami Chemical Research Center, priority 2001, dated 2010)

How the values were obtained:
Cyperus difformis = assay: Herbicidal efficacy test by pre-emergence treatment under submergence condition; type: in vivo; conditions: 15th day after treatment, ratings of 1 to 5; also: key: 1 shows no influence; 5 shows complete die
Excerpt: (§1) A 1/10,000-are pot was filled with paddy field soil, and, after plowing, seeds of Echinochloa oryzicola, Cyperus difformis, Monochoria vaginalis, Scirpus juncoides, Eleocharis acicularis and other annual broadleaf weeds such as Lindernia procumbens, Rotala indica and Elatine triandra were sown. Rice (oryza sativa) seedlings (cultiver “Koshihikari”) at a 2.5-leaf stage were transplanted and kept under a submergence condition. After one day, the wettable powder or emulsifiable concentrate of the compound of the present invention, prepared according to Preparation Example, was diluted and dropped on a water surface at a predetermined dose.

[1] = test system: annual broadleaf weeds such as Lindernia procumbens, Rotala indica and Elatine triandra; assay: as above; type: in vivo; conditions: 15th day after treatment, ratings of 1 to 5
Excerpt: as §1

Monochoria vaginalis = assay: as above; type: in vivo; conditions: 15th day after treatment, ratings of 1 to 5; also: key: 1 shows no influence; 5 shows complete die
Excerpt: as §1

Eleocharis acicularis = assay: as above; type: in vivo; conditions: 15th day after treatment, ratings of 1 to 5; also: key: 1 shows no influence; 5 shows complete die
Excerpt: as §1

Scirpus juncoides = assay: as above; type: in vivo; conditions: 15th day after treatment, ratings of 1 to 5
Excerpt: as §1

Echinochloa oryzicola = assay: as above; type: in vivo; conditions: 15th day after treatment, ratings of 1 to 5
Excerpt: as §1

Cc1cc(Oc2c(Cl)cc(C(F)(F)F)cc2Cl)nn1C(=O)NCCCl [Compound 3-143]
Herbicidal efficacy Cd (Cyperus difformis; dose 0.5 kg/ha): 5 | Herbicidal efficacy Cd (Cyperus difformis; dose 1 kg/ha): 5 | Herbicidal efficacy Blw ([1]; dose 0.5 kg/ha): 5 | Herbicidal efficacy Blw ([1]; dose 1 kg/ha): 5 | Herbicidal efficacy Mv (Monochoria vaginalis; dose 0.5 kg/ha): 5 | Herbicidal efficacy Mv (Monochoria vaginalis; dose 1 kg/ha): 5 | Herbicidal efficacy Ea (Eleocharis acicularis; dose 0.5 kg/ha): 5 | Herbicidal efficacy Ea (Eleocharis acicularis; dose 1 kg/ha): 5 | Herbicidal efficacy Sj (Scirpus juncoides; dose 0.5 kg/ha): 4 | Herbicidal efficacy Sj (Scirpus juncoides; dose 1 kg/ha): 5 | Herbicidal efficacy Eo (Echinochloa oryzicola; dose 0.5 kg/ha): 5 | Herbicidal efficacy Eo (Echinochloa oryzicola; dose 1 kg/ha): 5

CNC(=O)n1nc(Oc2ncc(C(F)(F)F)cc2Cl)cc1C [Compound 4-6, N-methyl-3-(3-chloro-5-trifluoromethylpyridin-2-yloxy)-5-methylpyrazole-1-carboxamide]
Herbicidal efficacy Cd (Cyperus difformis; dose 0.5 kg/ha): 5 | Herbicidal efficacy Cd (Cyperus difformis; dose 1 kg/ha): 5 | Herbicidal efficacy Blw ([1]; dose 0.5 kg/ha): 5 | Herbicidal efficacy Blw ([1]; dose 1 kg/ha): 5 | Herbicidal efficacy Mv (Monochoria vaginalis; dose 0.5 kg/ha): 5 | Herbicidal efficacy Mv (Monochoria vaginalis; dose 1 kg/ha): 5 | Herbicidal efficacy Ea (Eleocharis acicularis; dose 0.5 kg/ha): 5 | Herbicidal efficacy Ea (Eleocharis acicularis; dose 1 kg/ha): 5 | Herbicidal efficacy Sj (Scirpus juncoides; dose 0.5 kg/ha): 4.6 | Herbicidal efficacy Sj (Scirpus juncoides; dose 1 kg/ha): 5 | Herbicidal efficacy Eo (Echinochloa oryzicola; dose 0.5 kg/ha): 4.8 | Herbicidal efficacy Eo (Echinochloa oryzicola; dose 1 kg/ha): 5

CCNC(=O)n1nc(Oc2ncc(C(F)(F)F)cc2Cl)cc1C [Compound 4-16, N-ethyl-3-(3-chloro-5-trifluoromethylpyridin-2-yloxy)-5-methylpyrazole-1-carboxamide]
Herbicidal efficacy Cd (Cyperus difformis; dose 0.5 kg/ha): 5 | Herbicidal efficacy Cd (Cyperus difformis; dose 1 kg/ha): 5 | Herbicidal efficacy Blw ([1]; dose 0.5 kg/ha): 5 | Herbicidal efficacy Blw ([1]; dose 1 kg/ha): 5 | Herbicidal efficacy Mv (Monochoria vaginalis; dose 0.5 kg/ha): 5 | Herbicidal efficacy Mv (Monochoria vaginalis; dose 1 kg/ha): 5 | Herbicidal efficacy Ea (Eleocharis acicularis; dose 0.5 kg/ha): 5 | Herbicidal efficacy Ea (Eleocharis acicularis; dose 1 kg/ha): 5 | Herbicidal efficacy Sj (Scirpus juncoides; dose 0.5 kg/ha): 4.8 | Herbicidal efficacy Sj (Scirpus juncoides; dose 1 kg/ha): 5 | Herbicidal efficacy Eo (Echinochloa oryzicola; dose 0.5 kg/ha): 5 | Herbicidal efficacy Eo (Echinochloa oryzicola; dose 1 kg/ha): 5

CCNC(=S)n1nc(Oc2ncc(C(F)(F)F)cc2Cl)cc1C [Compound 4-17, N-ethyl-3-(3-chloro-5-trifluoromethylpyridin-2-yloxy)-5-methylpyrazole-1-carbothioamide]
Herbicidal efficacy Cd (Cyperus difformis; dose 0.5 kg/ha): 5 | Herbicidal efficacy Cd (Cyperus difformis; dose 1 kg/ha): 5 | Herbicidal efficacy Blw ([1]; dose 0.5 kg/ha): 4.8 | Herbicidal efficacy Blw ([1]; dose 1 kg/ha): 5 | Herbicidal efficacy Mv (Monochoria vaginalis; dose 0.5 kg/ha): 5 | Herbicidal efficacy Mv (Monochoria vaginalis; dose 1 kg/ha): 5 | Herbicidal efficacy Ea (Eleocharis acicularis; dose 0.5 kg/ha): 5 | Herbicidal efficacy Ea (Eleocharis acicularis; dose 1 kg/ha): 5 | Herbicidal efficacy Sj (Scirpus juncoides; dose 0.5 kg/ha): 4.5 | Herbicidal efficacy Sj (Scirpus juncoides; dose 1 kg/ha): 4.8 | Herbicidal efficacy Eo (Echinochloa oryzicola; dose 0.5 kg/ha): 5 | Herbicidal efficacy Eo (Echinochloa oryzicola; dose 1 kg/ha): 5

CCc1c(Cl)c(Oc2ncc(C(F)(F)F)cc2Cl)nn1C(=O)NC [Compound 4-89, N-methyl-4-chloro-3-(3-chloro-5-trifluoromethylpyridin-2-yloxy)-5-ethylpyrazole-1-carboxamide]
melting point: 88 to 89 °C

CNC(=O)n1nc(Oc2ncc(C(F)(F)F)cc2Cl)cc1C(F)(F)F [Compound 4-91, N-methyl-3-(3-chloro-5-trifluoromethylpyridin-2-yloxy)-5-trifluoromethylpyrazole-1-carboxamide]
melting point: 61 to 63 °C

CCNC(=O)n1nc(Oc2ncc(C(F)(F)F)cc2Cl)cc1C(F)(F)F [Compound 4-93, N-ethyl-3-(3-chloro-5-trifluoromethylpyridin-2-yloxy)-5-trifluoromethylpyrazole-1-carboxamide]
melting point: 52 to 54 °C

CCNC(=O)n1nc(Oc2ccc([N+](=O)[O-])cc2)cc1C [Example 54, N-ethyl-5-methyl-3-(4-nitrophenyloxy)pyrazole-1-carboxamide]
melting point: 105 to 107 °C

CCNC(=O)n1nc(Oc2ccc(F)cc2[N+](=O)[O-])cc1C [Example 85, N-ethyl-3-(4-fluoro-2-nitrophenyloxy)-5-methylpyrazole-1-carboxamide]
melting point: 81 to 84 °C

Cc1cc(Oc2ccc(C(F)(F)F)cc2[N+](=O)[O-])nn1C(=O)NC(C)(C)C [Example 86, N-tert-butyl-5-methyl-3-(2-nitro-4-trifluoromethylphenyloxy)-pyrazole-1-carboxamide]
melting point: 104 to 106 °C

CCNC(=O)n1nc(Oc2ccc(C#N)cc2C(F)(F)F)cc1C [Example 95, N-ethyl-3-(4-cyano-2-trifluoromethylphenyloxy)-5-methylpyrazole-1-carboxamide]
melting point: 103 to 105 °C

CCNC(=O)n1nc(Oc2ccc([N+](=O)[O-])c(C)c2)cc1C [Example 96, N-ethyl-5-methyl-3-(3-methyl-4-nitrophenyloxy)pyrazole-1-carboxamide]
melting point: 67 to 69 °C

CCNC(=O)n1nc(Oc2ccc([N+](=O)[O-])c(OCC)c2)cc1C [Example 98, N-ethyl-3-(3-ethoxy-4-nitrophenyloxy)-5-methylpyrazole-1-carboxamide]
melting point: 110 to 112 °C

CCNC(=O)n1nc(Oc2cc(OCC)ccc2[N+](=O)[O-])cc1C [Example 99, N-ethyl-3-(5-ethoxy-2-nitrophenyloxy)-5-methylpyrazole-1-carboxamide]
melting point: 73 to 75 °C

CCNC(=O)n1nc(Oc2ccc(N)c(C(F)(F)F)c2)cc1C [Example 100, N-ethyl-3-(4-amino-3-trifluoromethylphenyloxy)-5-methylpyrazole-1-carboxamide]
melting point: 102 to 104 °C

CCNC(=O)n1nc(Oc2c(F)cc(C(F)(F)F)cc2F)cc1C [Example 124, N-ethyl-3-(2,6-difluoro-4-trifluoromethylphenyloxy)-5-methylpyrazole-1-carboxamide]
melting point: 102 to 104 °C

CCNC(=O)n1nc(Oc2c(Cl)cc(C(F)(F)F)cc2[N+](=O)[O-])cc1C [Example 126, N-ethyl-3-(2-chloro-6-nitro-4-trifluoromethylphenyloxy)-5-methylpyrazole-1-carboxamide]
melting point: 98 to 99 °C

CCNC(=O)n1nc(Oc2c(Cl)cc(C(F)(F)F)cc2Cl)cc1CC [Example 163, N-ethyl-3-(2,6-dichloro-4-trifluoromethylphenyloxy)-5-ethylpyrazole-1-carboxamide]
melting point: 86 to 89 °C

CCNC(=O)n1nc(Oc2c(Cl)cc(C(F)(F)F)cc2Cl)cc1C(=O)OC [Example 175, methyl 3-(2,6-dichloro-4-trifluoromethylphenyloxy)-1 (N-ethylcarbamoyl)pyrazole-5-carboxylate]
melting point: 88 to 90 °C

CCNC(=O)n1nc(Oc2c(Cl)cc(C(F)(F)F)cc2Cl)cc1-c1ccc(Cl)cc1 [Example 176, N-ethyl-5-(4-chlorophenyl)-3-(2,6-dichloro-4-trifluoromethylphenyloxy)pyrazole-1-carboxamide]
melting point: 88 to 89 °C

COCNC(=S)n1nc(Oc2ccc(C#N)cc2C(F)(F)F)cc1C [Example 177, N-methoxymethyl-3-(4-cyano-2-trifluoromethylphenyloxy)-5-methylpyrazole-1-carbothioamide]
melting point: 89 to 90 °C

COCNC(=S)n1nc(Oc2c(Cl)cc(C(F)(F)F)cc2Cl)cc1C [Example 178, N-methoxymethyl-3-(2,6-dichloro-4-trifluoromethylphenyloxy)-5-methylpyrazole-1-carbothioamide]
melting point: 95 to 96 °C

Cc1cc(Oc2cccc(C(F)(F)F)c2)nn1C(=O)NCC1CCCO1 (stereo not shown) [Example 199, N-tetrahydrofurfuryl-5-methyl-3-(3-trifluoromethylphenyloxy)pyrazole-1-carboxamide]
melting point: 101 to 102 °C

Cc1cc(Oc2c(Cl)cc(C(F)(F)F)cc2Cl)nn1C(N)=O [Example 223, 3-(2,6-dichloro-4-trifluoromethylphenyloxy)-5-methylpyrazole-1-carboxamide]
melting point: 152 to 154 °C

Cc1cc(Oc2c(Cl)cc(C(F)(F)F)cc2Cl)nn1C(=O)NCC=O [Example 229, N-formylmethyl-3-(2,6-dichloro-4-trifluoromethylphenyloxy)-5-methylpyrazole-1-carboxamide]
melting point: 111 to 113 °C

CC(C)N(C(=O)n1nc(Oc2ccc(C(F)(F)F)cc2[N+](=O)[O-])cc1C(F)(F)F)C(C)C [Example 241, N,N-Diisopropyl-3-(2-nitro-4-trifluoromethylphenyloxy)-5-trifluoromethylpyrazole-1-carboxamide]
melting point: 118 to 120 °C

CNC(=O)n1nc(Oc2ccc(C(F)(F)F)cc2N)cc1C [Example 242, N-methyl-3-(2-amino-4-trifluoromethylphenyloxy)-5-methylpyrazole-1-carboxamide]
melting point: 93 to 94 °C

Cc1c(Cl)c(Oc2ccc(C(F)(F)F)cc2[N+](=O)[O-])nn1C(=O)NC(C)C [Example 243, N-isopropyl-4-chloro-5-methyl-3-(2-nitro-4-trifluoromethylphenyloxy)pyrazole-1-carboxamide]
melting point: 89 to 91 °C

CNC(=O)n1nc(Oc2ccc([N+](=O)[O-])cc2C(F)(F)F)c(Cl)c1C [Example 245, N-methyl-4-chloro-5-methyl-3-(4-nitro-2-trifluoromethylphenyloxy)pyrazole-1-carboxamide]
melting point: 157 to 158 °C

CCCCCCNC(=O)n1nc(Oc2c(Cl)cc(C(F)(F)F)cc2Cl)c(Cl)c1C [Example 246, N-hexyl-4-chloro-3-(2,6-dichloro-4-trifluoromethylphenyloxy)-5-methylpyrazole-1-carboxamide]
melting point: 86 to 88 °C

Cc1c(Cl)c(Oc2c(Cl)cc(C(F)(F)F)cc2Cl)nn1C(=O)NC(C)C [Example 249, N-isopropyl-4-chloro-3-(2,6-dichloro-4-trifluoromethylphenyloxy)-5-methylpyrazole-1-carboxamide]
melting point: 109 to 111 °C

CCCNC(=O)n1nc(Oc2c(Cl)cc(C(F)(F)F)cc2Cl)cc1C(Cl)(Cl)Cl [Example 250, N-propyl-3-(2,6-dichloro-4-trifluoromethylphenyloxy)-5-trichloromethylpyrazole-1-carboxamide]
melting point: 89 to 91 °C
